{"source": "paper PMC4492822", "about": "(EMBO Molecular Medicine, 2015)", "key": {"[1]": {"set-up": "species or system SCID mice", "details": "mouse, in vivo", "procedure": "Figure 5 Toxicity studies of RK-33 in mice • Following injection of 20 mg/kg of RK-33, twice a week for 7 weeks, extensive histopathological examination was carried out following necropsy. Identical patterns were observed both in the control and in the treated mice (n = 2). Samples were stained with H&E. Scale bar is 50 μm. • Pharmacokinetics of RK-33 in SCID mice at various time intervals. Results are mean ± SD from 5 mice. LC-MS/MS method was used to determine concentration of RK-33 in mouse plasma and tissue. • Liquid chromatography–mass spectrometry (LC-MS/MS) analysis was performed to determine different metabolites of RK-33. • RK-33 and metabolites characterized by LC-MS/MS in human liver microsomes using the scan mode function of the LC-MS/MS. • HAPI cells were treated with RK-33 (10 μM), HA14-1 (25 μM), or DMSO vehicle, followed by oligomycin (oligo, 0.5 μg/ml), FCCP (3 μM), and antimycin A (AA, 1 μM) while oxygen consumption rate (OCR) was measured. Pyruvate (10 mM) was added in combination with FCCP to ensure that substrate supply was not rate-limiting for maximal OCR. Data are mean ± SD from 2 to 3 wells and representative of independent experiments performed with two different HAPI passages. […] Significance was assessed by two-sided, unpaired t-test. […]"}, "[2]": {"system": "preclinical breast and sarcoma models", "test": "Single agent activity in preclinical breast and sarcoma models", "assay_type": "in vivo", "details": "authors' response to reviewers", "text": "EMBO Molecular Medicine Peer Review Process File - EMM-2014-04368 levels vary based on the datasets analyzed. In addition, as far as DDX3 protein levels are concerned, […]\nmaking it difficult to interpret the gene expression datasets as an absolute unit to that of the protein […]\n3) A more detailed description of expression in other normal tissues would help anticipate toxicities.\nResponse: It is difficult to ascertain if the levels of DDX3 in the normal cells will directly correlate to toxicities levels following RK-33 treatment. It is possible that normal cells are not dependent on DDX3 for its cellular biogenesis as compared to the cancer cells. This could be one of the reasons why there is no observable toxicity within our experimental setting. Also, as a first step to determine toxicity for a novel drug, it is essential to test the effect in small animals like mouse or rat. Based on these criteria, we observed no toxicity in mouse at higher levels than the therapeutic dose to kill […]\nimpart any visible side effects.\n4) Legends for Figure 2 are mislabeled.\nResponse: We thank the reviewer for pointing this out. We have rectified this in the revised […]\n5) What is the subsrate in the helicase assay. Have the authors explored RNA secondary (e.g. G-quadruplex or hairpin structures)? […]\n10) Figure 7. Please add a quantification of cell death. […]"}}, "data": [{"substance": "diimidazo[4,5-d:4′,5′-f]-[1,3]diazepine [RK-33]", "values": [{"measurement": "accumulation in organs (biodistribution)", "setting": "[1]", "result": "able to accumulate at therapeutic dose in various organs"}, {"measurement": "single agent activity", "setting": "[2]", "result": "delayed tumor growth"}]}]}
